“And” between values parts separate entries of the source, which are not always exact repeats. Equal values may be shown once. Where only a bound is given, the exact number is not on record here.

Test system in the first data set: not given
Experiment: not given
Details: not given
Regarding `N#Cc1cnc2cc(C=CCCCN3CCOCC3)ccc2c1Nc1ccc(Cl)cc1Cl` (mixture of isomers) [Example 12, 4-(2,4-Dichloroanilino)-7-[(E/Z)-5-(4-morpholinyl)-1-pentenyl]-3-quinoline-carbonitrile], the melting point lay in the range of 70 to 72 °C.

The compound `N#Cc1cnc2cc(C=CCCCCN3CCOCC3)ccc2c1Nc1ccc(Cl)cc1Cl` (mixture of isomers) [Example 16, 4-(2,4-Dichloroanilino)-7-[(E/Z)-6-(4-morpholinyl)-1-hexenyl]-3-quinolinecarbonitrile] showed a melting point of 128 to 130 °C.

Compound `COc1cc(Nc2c(C#N)cnc3cc(-c4ccc(C5OCCO5)o4)ccc23)c(Cl)cc1Cl` [Example 5, 4-(2,4-dichloro-5-methoxyanilino)-7-[5-(1,3-dioxolan-2-yl)-2-furyl]-3-quinolinecarbonitrile] gave a melting point of 224 to 229 °C.

As for `COc1cc(Nc2c(C#N)cnc3cc(-c4ccc(C=O)o4)ccc23)c(Cl)cc1Cl` [Example 6, 4-(2,4-Dichloro-5-methoxyanilino)-7-(5-formyl-2-furyl)-3-quinolinecarbonitrile], the melting point was more than 250 °C.

`N#Cc1cnc2cc(-c3ccc(CCN4CCOCC4)s3)ccc2c1Nc1ccc(Cl)cc1Cl` [Example 9, 4-(2,4-Dichloroanilino)-7-{5-[2-(4-morpholinyl)ethyl]-2-thienyl}-3-quinoline-carbonitrile] showed a melting point of 168 to 169 °C.

As for `Cn1ccnc1Sc1ccc(Nc2c(C#N)cnc3cc(-c4ccc(CN5CCC(O)CC5)nc4)ccc23)cc1Cl` [Example 223, 4-({3-Chloro-4-[(1-methyl-1H-imidazol-2-yl)sulfanyl]phenyl}amino)-7-{6-[(4-hydroxy-1-piperidinyl)methyl]-3-pyridinyl}-3-quinolinecarbonitrile], the melting point is 242 to 244 °C.

In the case of `COc1cc(Nc2c(C#N)cnc3cc(-c4cnc(CN5CCOCC5)n4C)ccc23)c(Cl)cc1Cl` [Example 226, 4-(2,4-Dichloro-5-methoxyanilino)-7-[1-methyl-2-(4-morpholinylmethyl)-1H-imidazol-5-yl]-3-quinolinecarbonitrile], the melting point was in the range of 140 to 143 °C.

Compound `COc1cc(Nc2c(C#N)cnc3cc(-c4cnc(CN5CCN(C)CC5)n4C)ccc23)c(Cl)cc1Cl` [Example 227, 4-(2,4-Dichloro-5-methoxyanilino)-7-{1-methyl-2-[(4-methyl-1-piperazinyl)methyl]-1H-imidazol-5-yl}-3-quinolinecarbonitrile] showed a melting point of 156 to 159 °C.

Compound `COc1cc(Nc2c(C#N)cnc3cc(-c4cnc(CN5CCN(C)CC5)n4C)c(OC)cc23)c(Cl)cc1Cl` [Example 233, 4-(2,4-Dichloro-5-methoxyanilino)-6-methoxy-7-{1-methyl-2-[(4-methyl-1-piperazinyl)methyl]-1H-imidazol-5-yl}-3-quinolinecarbonitrile] returned a melting point of 234 to 236 °C.

For a further data set, the target named is Rat2 fibroblasts stably transformed with v-Src/Hu c-Src fusion gene (Homo sapiens, UniProt P12931, cells depend on it, form not given). In words: Anchorage Independent Src-transformed Fibroblast Proliferation Assay. The data set is classed as cell-based, Rat. Particulars: suspension growth, MTS reagent on Day 5; read-out: anch-indep src-tx fib IC50. The procedure: Anchorage Independent Src-transformed Fibroblast Proliferation Assay
Rat2 fibroblasts stably transformed with v-Src/Hu c-Src fusion gene, sequence (P12931 whole entry, stated change not applied, the tested form may be a part): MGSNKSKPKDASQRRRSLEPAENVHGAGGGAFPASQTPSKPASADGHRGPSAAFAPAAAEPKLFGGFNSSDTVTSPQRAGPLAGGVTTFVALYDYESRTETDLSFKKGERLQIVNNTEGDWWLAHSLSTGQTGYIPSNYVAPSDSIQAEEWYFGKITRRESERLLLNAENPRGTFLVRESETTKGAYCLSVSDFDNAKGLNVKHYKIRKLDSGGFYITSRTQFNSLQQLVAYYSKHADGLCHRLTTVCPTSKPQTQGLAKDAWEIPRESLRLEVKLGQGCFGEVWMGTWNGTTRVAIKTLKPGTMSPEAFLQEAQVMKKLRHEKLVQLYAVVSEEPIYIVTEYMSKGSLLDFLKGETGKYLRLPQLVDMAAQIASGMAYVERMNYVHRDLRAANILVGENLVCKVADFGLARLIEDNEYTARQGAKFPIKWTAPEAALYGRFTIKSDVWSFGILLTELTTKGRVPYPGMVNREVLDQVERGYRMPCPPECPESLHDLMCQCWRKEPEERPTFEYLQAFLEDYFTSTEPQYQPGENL
Rat2 fibroblasts stably transformed with a plasmid containing a CMV promotor controlled v-Src/Hu c-Src fusion gene in which the catalytic domain of human c-Src was inserted in place of the v-Src catalytic domain in the v-Src gene are used for the measurement of src dependent suspension growth. […] Multiple entries for a given compound indicate that it was tested multiple times.
Turning to `N#Cc1cnc2cc(C=CCCCN3CCOCC3)ccc2c1Nc1ccc(Cl)cc1Cl` (mixture of isomers) [Example 12, 4-(2,4-Dichloroanilino)-7-[(E/Z)-5-(4-morpholinyl)-1-pentenyl]-3-quinoline-carbonitrile], the GI50 is more than 10000 nM.

Consider `N#Cc1cnc2cc(C=CCCCCN3CCOCC3)ccc2c1Nc1ccc(Cl)cc1Cl` (mixture of isomers) [Example 16, 4-(2,4-Dichloroanilino)-7-[(E/Z)-6-(4-morpholinyl)-1-hexenyl]-3-quinolinecarbonitrile], for which the GI50 is more than 10000 nM.

Turning to `COc1cc(Nc2c(C#N)cnc3cc(-c4ccc(C5OCCO5)o4)ccc23)c(Cl)cc1Cl` [Example 5, 4-(2,4-dichloro-5-methoxyanilino)-7-[5-(1,3-dioxolan-2-yl)-2-furyl]-3-quinolinecarbonitrile], the GI50 came to 200 nM.

`COc1cc(Nc2c(C#N)cnc3cc(-c4ccc(C=O)o4)ccc23)c(Cl)cc1Cl` [Example 6, 4-(2,4-Dichloro-5-methoxyanilino)-7-(5-formyl-2-furyl)-3-quinolinecarbonitrile]: the GI50 worked out at 1600 nM.

`N#Cc1cnc2cc(-c3ccc(CCN4CCOCC4)s3)ccc2c1Nc1ccc(Cl)cc1Cl` [Example 9, 4-(2,4-Dichloroanilino)-7-{5-[2-(4-morpholinyl)ethyl]-2-thienyl}-3-quinoline-carbonitrile]: the GI50 worked out at 2700 nM.

On to `CCN1CCN(Cc2cc(-c3ccc4c(Nc5cc(OC)c(Cl)cc5Cl)c(C#N)cnc4c3)cs2)CC1` [Example 19, 4-(2,4-dichloro-5-methoxyanilino)-7-{5-[(4-ethyl-1-piperazinyl)methyl]-3-thienyl}-3-quinolinecarbonitrile], for which the GI50 stood at 160 nM.

In the case of `COc1cc(Nc2c(C#N)cnc3cc(-c4ccc(CN5CCOCC5)s4)ccc23)c(Cl)cc1Cl` [Example 23, 4-(2,4-Dichloro-5-methoxyanilino)-7-[5-(4-morpholinylmethyl)-2-thienyl]-3-quinolinecarbonitrile], the GI50 was 90 nM.

With `COc1cc(Nc2c(C#N)cnc3cc(-c4csc(CN5CCOCC5)c4)ccc23)c(Cl)cc1Cl` [Example 24, 4-(2,4-Dichloro-5-methoxyanilino)-7-[5-(4-morpholinylmethyl)-3-thienyl]-3-quinolinecarbonitrile], the GI50 stood at 180 nM.

Regarding `COc1cc(Nc2c(C#N)cnc3cc(-c4ccc(CCN5CCOCC5)cc4)ccc23)c(Cl)cc1Cl` [Example 27, 4-(2,4-Dichloro-5-methoxyanilino)-7-{4-[2-(4-morpholinyl)ethyl]phenyl}-3-quinolinecarbonitrile], the GI50 was determined as 1020 nM.

`COc1cc(Nc2c(C#N)cnc3cc(-c4cccc(CCN5CCOCC5)c4)ccc23)c(Cl)cc1Cl` [Example 28, 4-(2,4-Dichloro-5-methoxyanilino)-7-{3-[2-(4-morpholinyl)ethyl]phenyl}-3-quinolinecarbonitrile]: the GI50 is 4100 nM.

Consider `COc1cc(Nc2c(C#N)cnc3cc(-c4ccc(CN5CCOCC5)cc4)ccc23)c(Cl)cc1Cl` [Example 29, 4-(2,4-Dichloro-5-methoxyanilino)-7-[4-(4-morpholinylmethyl)phenyl]-3-quinolinecarbonitrile], for which the GI50 was 540 nM and 500 nM.

Regarding `CCN1CCN(CCc2ccc(-c3ccc4c(Nc5cc(OC)c(Cl)cc5Cl)c(C#N)cnc4c3)cc2)CC1` [Example 32, 4-(2,4-Dichloro-5-methoxyanilino)-7-{4-[2-(4-ethyl-1-piperazinyl)ethyl]phenyl}-3-quinolinecarbonitrile], the GI50 is 2000 nM and 1900 nM.

Take `COc1cc(Nc2c(C#N)cnc3cc(-c4ccc(CN5CCOCC5)cc4)c(OC)cc23)c(Cl)cc1Cl` [Example 37, 4-(2,4-Dichloro-5-methoxyanilino)-6-methoxy-7-[4-(4-morpholinylmethyl)phenyl]-3-quinolinecarbonitrile]: the GI50 is 1590 nM and 1490 nM.

Regarding `COc1cc(Nc2c(C#N)cnc3cc(-c4cccc(CCN5CCOCC5)c4)c(OC)cc23)c(Cl)cc1Cl` [Example 38, 4-(2,4-Dichloro-5-methoxyanilino)-6-methoxy-7-{3-[2-(4-morpholinyl)ethyl]phenyl}-3-quinolinecarbonitrile], the GI50 was 12700 nM and 10600 nM.

For the compound `COc1cc(Nc2c(C#N)cnc3cc(-c4cscc4CN4CCOCC4)ccc23)c(Cl)cc1Cl` [Example 65, 4-(2,4-Dichloro-5-methoxyanilino)-7-[4-(4-morpholinylmethyl)-3-thienyl]-3-quinolinecarbonitrile], the GI50 is more than 10000 nM.

With `COc1cc(Nc2c(C#N)cnc3cc(-c4ccsc4CN4CCOCC4)ccc23)c(Cl)cc1Cl` [Example 66, 4-(2,4-Dichloro-5-methoxyanilino)-7-[2-(4-morpholinylmethyl)-3-thienyl]-3-quinolinecarbonitrile], the GI50 was more than 10000 nM.

Turning to `COc1cc(Nc2c(C#N)cnc3cc(-c4cc(CN5CCOCC5)cs4)ccc23)c(Cl)cc1Cl` [Example 68, 4-(2,4-Dichloro-5-methoxyanilino)-7-[4-(4-morpholinylmethyl)-2-thienyl]-3-quinolinecarbonitrile], the GI50 was 120 nM.

Regarding `COc1cc(Nc2c(C#N)cnc3cc(-c4ccc(CNCCS(=O)(=O)c5ccccc5)n4C)ccc23)c(Cl)cc1Cl` [Example 72, 4-(2,4-dichloro-5-methoxyanilino)-7-[1-methyl-5-({[2-(phenylsulfonyl)ethyl]amino}methyl)-1H-pyrrol-2-yl]-3-quinolinecarbonitrile], the GI50 was more than 10000 nM.

In the case of `COc1cc(Nc2c(C#N)cnc3cc(-c4ccc(CN5CCCCC5)s4)ccc23)c(Cl)cc1Cl` [Example 78, 4-(2,4-Dichloro-5-methoxyanilino)-7-[5-(1-piperidinylmethyl)-2-thienyl]-3-quinolinecarbonitrile], the GI50 is 140 nM.

As to `COc1cc(Nc2c(C#N)cnc3cc(C#Cc4ccccn4)ccc23)c(Cl)cc1Cl` [Example 91, 4-(2,4-Dichloro-5-methoxyanilino)-7-[2-(2-pyridinyl)ethynyl]-3-quinolinecarbonitrile], the GI50 is more than 10000 nM.

Take `COc1cc(Nc2c(C#N)cnc3cc(-c4ccc[nH]4)ccc23)c(Cl)cc1Cl` [Example 104, 4-(2,4-Dichloro-5-methoxyanilino)-7-(1H-pyrrol-2-yl)-3-quinolinecarbonitrile]: the GI50 came out at 560 nM.

For the compound `COc1cc(Nc2c(C#N)cnc3cc(-c4cccc(CN5CCN(C)CC5)c4)ccc23)c(Cl)cc1Cl` [Example 113, 4-(2,4-dichloro-5-methoxyanilino)-7-{3-[(4-methyl-1-piperazinyl)methyl]phenyl}-3-quinolinecarbonitrile], the GI50 stood at 1400 nM.

Consider `COc1cc(Nc2c(C#N)cnc3cc(-c4ccccc4C=O)ccc23)c(Cl)cc1Cl` [Example 114, 4-(2,4-Dichloro-5-methoxyanilino)-7-(2-formylphenyl)-3-quinolinecarbonittile], for which the GI50 was more than 10000 nM.

`COc1cc(Nc2c(C#N)cnc3cc(-c4ccccc4CN4CCOCC4)ccc23)c(Cl)cc1Cl` [Example 115, 4-(2,4-Dichloro-5-methoxyanilino)-7-[2-(4-morpholinylmethyl)phenyl]-3-quinolinecarbonitrile]: the GI50 is more than 10000 nM.

Take `COc1cc(Nc2c(C#N)cnc3cc(/C=C/c4ccccc4)ccc23)c(Cl)cc1Cl` [Example 139, 4-(2,4-Dichloro-5-methoxyanilino)-7-[(E)-2-phenylethenyl]-3-quinolinecarbonitrile]: the GI50 was more than 10000 nM.

For `COc1cc(Nc2c(C#N)cnc3cc(C#Cc4ccccc4)ccc23)c(Cl)cc1Cl` [Example 140, 4-(2,4-Dichloro-5-methoxyanilino)-7-(2-phenylethynyl)-3-quinolinecarbonitrile], the GI50 was more than 10000 nM.

Turning to `COc1cc(Nc2c(C#N)cnc3cc(-c4csc(CN5CCC(O)CC5)c4)ccc23)c(Cl)cc1Cl` [Example 192, 4-(2,4-Dichloro-5-methoxyanilino)-7-{5-[(4-hydroxy-1-piperidinyl)methyl]-3-thienyl}-3-quinolinecarbonitrile], the GI50 was found to be 170 nM.
